The source of these data is US9890142B2, “PDE4 inhibitor” (Meiji Seika Pharma Co., Ltd., priority 2013, dated 2018).

The experiment relates to PDE4. As to the kind of experiment: Evaluation of PDE4 inhibition (scintillation proximity assay). In kind it is biochemical. Conditions: inhibition rate relative to control, test compound at 1 μM. The procedure: Test Example 1 Evaluation of PDE4 Inhibition
The PDE4 inhibitory activity was measured by using scintillation proximity assay (SPA) as follows: one in which a sample compound dissolved in dimethyl sulfoxide was diluted 10-fold with a buffer solution for reaction containing 50 mM Tris-HCl, pH 7.5, 8.3 mM MgCl2, 1.7 mM EDTA and 0.3 mg/mL bovine serum albumin (BSA) was added at 10 μL/well to a 96-well assay plate. Further, PDE4 diluted 750-fold with a buffer solution for reaction was added at 50 μL/well, then [2,8-^3H]-Adenosine-3′,5′-cyclic phosphate triethylammonium salt diluted 1000-fold with a buffer solution for reaction was added at 40 μL/well, and the plate was left standing at room temperature for 120 minutes. Thereafter, a suspension of RNA binding YSi-SPA Beads containing 200 mM ZnSO4 was added at 50 μL/well, and the plate was left standing at room temperature for 15 minutes to adsorb the enzyme reaction product onto the Beads. Thereafter, the radioactivity was measured with a liquid scintillation counter for 96-well plates. When one supplemented with only a buffer solution for reaction without adding the enzyme preparation was used as a blank and one supplemented with the enzyme preparation but supplemented with only dimethyl sulfoxide instead of the sample solution was used as a control, the inhibition rate of the test compound relative to the control was calculated according to the following calculation expression: Inhibition rate (%)={1−(Numeric value from the addition of each sample−Blank value)/(Control value−Blank value)}×100
In general terms: SPA uses beads or plates that emit light when radiolabelled molecules are held near them.
On to `C[C@H]1CNCCN1c1nc2cc(Cl)cc(-c3cc(Cl)ccn3)c2o1` [Example 59, (S)-5-Chloro-7-(4-chloropyridin-2-yl)-2-(2-methylpiperazin-1-yl)benzoxazole], for which the “PDE4 inhibitory activity (1 μM (%))” value is 71%.

On to `Cc1cc(-c2ncco2)c2oc(N3CCNC[C@@H]3C)nc2c1` [Example 116, (S)-5-methyl-2-(2-methylpiperazin-1-yl)-7-(oxazol-2-yl)benzoxazole], for which the “PDE4 inhibitory activity (1 μM (%))” value is given as 80%. In the case of `C[C@H]1CNCCN1c1nc2c(C(F)(F)F)c(F)cc(-n3cccn3)c2o1` [Example 119, (S)-5-Fluoro-2-(2-methylpiperazin-1-yl)-7-(1H-pyrazol-1-yl)-4-(trifluoromethyl)benzoxazole], the “PDE4 inhibitory activity (1 μM (%))” value was 91%. The figure for `C[C@H]1CNCCN1c1nc2cc(F)cc(-c3nccs3)c2o1` [Example 103, (S)-5-Fluoro-2-(2-methylpiperazin-1-yl)-7-(thiazol-2-yl)benzoxazole] is 96%; for `C[C@H]1CNCCN1c1nc2cc(Cl)cc(C3=NCCO3)c2o1` [Example 106, (S)-5-Chloro-7-(4,5-dihydro-oxazol-2-yl)-2-(2-methylpiperazin-1-yl)benzoxazole] it is 42%. The figure for `C[C@H]1CNCCN1c1nc2cc(Cl)cc(-c3cscn3)c2o1` [Example 37, (S)-5-Chloro-2-(2-methylpiperazin-1-yl)-7-(thiazol-4-yl)benzoxazole] is 98%; for `C[C@H]1CNCCN1c1nc2c(F)c(F)cc(-c3ccccn3)c2o1` [Example 89, (S)-4,5-Difluoro-2-(2-methylpiperazin-1-yl)-7-(pyridin-2-yl)benzoxazole] it is 88%. The result for `C[C@H]1CNCCN1c1nc2cc(Cl)cc(-c3ncc(C(N)=O)s3)c2o1` [Example 65, (S)-5-Chloro-7-(5-carbamoylthiazol-2-yl)-2-(2-methylpiperazin-1-yl)benzoxazole] reads 83%; that for `C[C@H]1CNCCN1c1nc2cc(Cl)cc(C3CCCO3)c2o1` (mixture of isomers) [Example 80, 5-Chloro-2-((S)-2-methylpiperazin-1-yl)-7-(tetrahydrofuran-2-yl)benzoxazole], 42%. `COc1cccnc1-c1cc(Cl)cc2nc(N3CCNC[C@@H]3C)oc12` [Example 79, (S)-5-Chloro-7-(3-methoxypyridin-2-yl)-2-(2-methylpiperazin-1-yl)benzoxazole]: the “PDE4 inhibitory activity (1 μM (%))” value turned out to be 53%. The result for `C[C@H]1CNCCN1c1nc2cc(Cl)cc(-c3nccn3C)c2o1` [Example 49, (S)-5-Chloro-7-(1-methyl-1H-imidazol-2-yl)-2-(2-methylpiperazin-1-yl)-benzoxazole] reads 17%; that for `C[C@H]1CNCCN1c1nc2cc(Cl)cc(-c3ccccn3)c2o1` [Example 41, (S)-5-Chloro-2-(2-methylpiperazin-1-yl)-7-(pyridin-2-yl)benzoxazole], 93%; that for `C[C@H]1CNCCN1c1nc2cc(Cl)cc(-c3ncsc3CO)c2o1` [Example 76, (S)-5-Chloro-7-(5-(hydroxymethyl)thiazol-4-yl)-2-(2-methylpiperazin-1-yl)benzoxazole], 73%. The figure for `C[C@H]1CNCCN1c1nc2c(Br)cc(Cl)cc2o1` [Example 163, (S)-4-Bromo-6-chloro-2-(2-methylpiperazin-1-yl)benzoxazole] is 52%; for `Cc1c(Cl)cc2nc(N3CCNC[C@@H]3C)oc2c1-c1nccs1` [Example 138, (S)-5-Chloro-6-methyl-2-(2-methylpiperazin-1-yl)-7-(thiazol-2-yl)benzoxazole] it is 86%; for `C[C@H]1CNCCN1c1nc2cc(F)c(C(F)(F)F)c(-c3nccs3)c2o1` [Example 144, (S)-5-Fluoro-2-(2-methylpiperazin-1-yl)-7-(thiazol-2-yl)-6-(trifluoromethyl)benzoxazole] it is 41%. Turning to `C[C@@H]1CNCCN1c1nc2c(-c3ccco3)cc(Cl)cc2o1` [Example 165, (R)-6-Chloro-4-(furan-2-yl)-2-(2-methylpiperazin-1-yl)benzoxazole], the “PDE4 inhibitory activity (1 μM (%))” value was determined as 31%. The result for `C[C@H]1CNCCN1c1nc2cc(Cl)cc(N3CCOCC3)c2o1` [Example 21, (S)-5-Chloro-2-(2-methylpiperazin-1-yl)-7-(morpholin-1-yl)benzoxazole] reads 59%; that for `C[C@H]1CNCCN1c1nc2cc(Cl)cc(-c3ccsc3Cl)c2o1` [Example 64, (S)-5-Chloro-7-(2-chlorothiophen-3-yl)-2-(2-methylpiperazin-1-yl)benzoxazole], 73%. Regarding `CCN(CC)C(=O)c1cc(Cl)cc2nc(N3CCNC[C@@H]3C)oc12` [Example 97, (S)-5-Chloro-7-diethylaminocarbonyl-2-(2-methylpiperazin-1-yl)benzoxazole], the “PDE4 inhibitory activity (1 μM (%))” value is on record as 10%. The figure for `C[C@H]1CNCCN1c1nc2cc(Cl)cc(-c3ccc(Cl)s3)c2o1` [Example 57, (S)-5-Chloro-7-(5-chlorothiophen-2-yl)-2-(2-methylpiperazin-1-yl)benzoxazole] is 54%; for `C[C@H]1CNCCN1c1nc2cc(Cl)cc(C3CCCCC3)c2o1` [Example 44, (S)-5-Chloro-7-cyclohexyl-2-(2-methylpiperazin-1-yl)benzoxazole] it is 64%; for `C[C@H]1CNCCN1c1nc2c(OC(F)(F)F)c(F)cc(-c3nccs3)c2o1` [Example 135, (S)-5-Fluoro-2-(2-methylpiperazin-1-yl)-7-(thiazol-2-yl)-4-(trifluoromethoxy)benzoxazole] it is 99%.

Consider `C[C@H]1CNCCN1c1nc2cc(Cl)cc(OC3CCCCC3)c2o1` [Example 52, (S)-5-Chloro-7-(cyclohexyloxy)-2-(2-methylpiperazin-1-yl)benzoxazole], for which the “PDE4 inhibitory activity (1 μM (%))” value turned out to be 57%. As to `CCN(CC)c1cc(Cl)cc2nc(N3CCNC[C@@H]3C)oc12` [Example 25, (S)-5-Chloro-7-diethylamino-2-(2-methylpiperazin-1-yl)benzoxazole], the “PDE4 inhibitory activity (1 μM (%))” value is on record as 53%. The figure for `COc1c(Cl)cc2nc(N3CCNC[C@@H]3C)oc2c1-c1ccccn1` [Example 140, (S)-5-Chloro-6-methoxy-2-(2-methylpiperazin-1-yl)-7-(pyridin-2-yl)benzoxazole] is 35%; for `Cc1c(Cl)cc2nc(N3CCNC[C@@H]3C)oc2c1-n1cccn1` [Example 139, (S)-5-Chloro-6-methyl-2-(2-methylpiperazin-1-yl)-7-(1H-pyrazol-1-yl)benzoxazole] it is 39%; for `CCc1cc(Cl)cc2nc(N3CCNC[C@H]3C)oc12` [Example 174, (R)-5-Chloro-7-ethyl-2-(2-methylpiperazin-1-yl)benzoxazole] it is 21%. Turning to `C[C@H]1CNCCN1c1nc2c(S(C)(=O)=O)c(Cl)cc(-c3ccccn3)c2o1` [Example 151, (S)-5-Chloro-2-(2-methylpiperazin-1-yl)-4-(methylsulfonyl)-7-(pyridin-2-yl)benzoxazole], the “PDE4 inhibitory activity (1 μM (%))” value came to 76%.
